According to US11517622B2, “Combination of regorafenib and PD-1/PD-L1(2) inhibitors for treating cancer” (BAYER AKTIENGESELLSCHAFT, priority 2017, dated 2022):

Tests used:
[1] = system: CT26 syngeneic tumors; experiment: Liver metastases in syngenic murine CT26 CRC model (orthotopic tumors); assay type: in vivo, mice
Procedure: The combinatorial activity of regorafenib and anti-mouse PD-1 antibody (RMP1-14, Peng et al., Cancer Res., (2012) 72(20), 5209-5218) was investigated in a syngenic murine CT26 CRC model
CT26 syngeneic tumors were grown orthotopically in mice (Abou-Elkacem et al., Mol Cancer Ther. 2013 July; 12(7):1322-31) and treated with regorafenib and/or anti-mouse PD-1 antibody (RMP1-14) according to the following regimens:
a) regorafenib alone at a dose of 30 mg/kg per day once daily for 10 days as a PluronicF68/PEG400/Propylenglycol/water (12/34/34/20) po (per oral) formulation using the formulation vehicle alone as control or in a combination with an unspecific control antibody given intraperitoneally (i.p.) at a dose of 20 mg/kg in PBS every third day. b) anti-mouse PD-1 antibody (RMP1-14) alone dosed at 20 mg/kg every third day for four times as a PBS i.p. formulation and an unspecific antibody was used as control c) in combination, regorafenib at a dose of 20 mg/kg per day once daily for 10 days as a PluronicF68/PEG400/Propylenglycol/water (/12/34/34/20) p.o. formulation and anti-mouse PD-1 antibody (RMP1-14) dosed at 20 mg/kg every third day for four times as a PBS i.p. formulation,
Mice were sacrificed at the end of treatment or at the end of the observation period and livers were screened macroscopically for metastases on their surface. The number of mice with liver metastases was then related to the total number of mice in the respective study arm.

[2] = system: MC38 syngeneic tumors; experiment: Antitumor activity in syngenic murine MC38 CRC model (subcutaneous tumors); assay type: in vivo, mice
Procedure: The combinatorial activity of regorafenib and anti-mouse PD-1 antibody (RMP1-14, Peng et al., Cancer Res., (2012) 72(20), 5209-5218) was investigated in a syngenic murine MC38 CRC model
MC38 syngeneic tumors were grown subcutaneously in mice and treated with regorafenib and/or anti-mouse PD-1 antibody (RMP1-14) according to the following regimens: […]
Control animals were treated concomitantly with the regorafenib vehicle (PluronicF68/PEG400/Propylenglycol (15/42,5/42,5+20% aqua)) and a non-binding isotype control antibody (rat IgG2a, clone 2A3). Tumor growth was monitored by caliper measurement and the tumor area was calculated using the formula a×b where a and b are the long and short diameters of the tumor, respectively. Tumor weights were measured after completion of the study. Tumor vs control (T/C) was calculated using vehicle treated animals as reference.

[3] = d 14 p.i., after treatment, single agent
[4] = d 25 p.i., observation period after treatment stop at d 14, regorafenib plus control antibody

## CNC(=O)c1cc(Oc2ccc(NC(=O)Nc3ccc(Cl)c(C(F)(F)F)c3)c(F)c2)ccn1 [Regorafenib, 4{4-[3-(4-chloro-3-trifluoromethylphenyl)-ureido]-3-fluorophenoxy}-pyridine-2-carboxylic acid methylamide]
[1]; [3]
  # of animals with mets: 0
  % animals wirth mets: 0%
[1]; [4]
  # of animals with mets: 8
  % animals wirth mets: 100%
[2]; regimen a): regorafenib 3 mg/kg po once daily for 15 days plus isotype control 10 mg/kg ip, tumor area vs vehicle
  T/C (area): 0.68
[2]; regimen a): regorafenib 3 mg/kg po once daily for 15 days plus isotype control 10 mg/kg ip, tumor weight at study end vs vehicle
  T/C (weight): 0.64
[2]; single agents
  growth of MC38 tumors vs control: inhibited the growth of MC38 tumors vs control
